{"source": "ChEMBL document CHEMBL4402523", "about": "“2-Aminomethylene-5-sulfonylthiazole Inhibitors of Lysyl Oxidase (LOX) and LOXL2 Show Significant Efficacy in Delaying Tumor Growth” (J Med Chem, 2020)", "key": {"[1]": {"experiment": "Stability in Sprague-Dawley rat liver microsomes assessed as parent compound remaining at 10 uM measured after 30 mins by LC-MS/MS analysis", "type": "ADME, Microsome", "conditions": "read-out: Stability"}, "[2]": {"experiment": "Toxicity in MMTV-PyMT mouse breast cancer model assessed as change in body weight at 70 mg/kg, po administered once daily via gavage for 34 days", "type": "organism-based", "conditions": "in vivo, 816 h"}, "[3]": {"test_system": "Mus musculus", "experiment": "Antitumor activity against MMTV-PyMT mouse breast cancer model assessed as reduction in tumor growth at 70 mg/kg, po administered once daily via gavage for 34 days measured twice a week during compound dosing", "type": "functional, organism-based"}, "[4]": {"experiment": "Stability in CD1 mouse liver microsomes assessed as parent compound remaining at 10 uM measured after 30 mins by LC-MS/MS analysis", "type": "ADME, Microsome", "conditions": "read-out: Stability"}, "[5]": {"molecular_target": "T1, Lysyl oxidase homolog 2 (Homo sapiens) (UniProt Q9Y4K0)", "T1 sequence (whole entry)": "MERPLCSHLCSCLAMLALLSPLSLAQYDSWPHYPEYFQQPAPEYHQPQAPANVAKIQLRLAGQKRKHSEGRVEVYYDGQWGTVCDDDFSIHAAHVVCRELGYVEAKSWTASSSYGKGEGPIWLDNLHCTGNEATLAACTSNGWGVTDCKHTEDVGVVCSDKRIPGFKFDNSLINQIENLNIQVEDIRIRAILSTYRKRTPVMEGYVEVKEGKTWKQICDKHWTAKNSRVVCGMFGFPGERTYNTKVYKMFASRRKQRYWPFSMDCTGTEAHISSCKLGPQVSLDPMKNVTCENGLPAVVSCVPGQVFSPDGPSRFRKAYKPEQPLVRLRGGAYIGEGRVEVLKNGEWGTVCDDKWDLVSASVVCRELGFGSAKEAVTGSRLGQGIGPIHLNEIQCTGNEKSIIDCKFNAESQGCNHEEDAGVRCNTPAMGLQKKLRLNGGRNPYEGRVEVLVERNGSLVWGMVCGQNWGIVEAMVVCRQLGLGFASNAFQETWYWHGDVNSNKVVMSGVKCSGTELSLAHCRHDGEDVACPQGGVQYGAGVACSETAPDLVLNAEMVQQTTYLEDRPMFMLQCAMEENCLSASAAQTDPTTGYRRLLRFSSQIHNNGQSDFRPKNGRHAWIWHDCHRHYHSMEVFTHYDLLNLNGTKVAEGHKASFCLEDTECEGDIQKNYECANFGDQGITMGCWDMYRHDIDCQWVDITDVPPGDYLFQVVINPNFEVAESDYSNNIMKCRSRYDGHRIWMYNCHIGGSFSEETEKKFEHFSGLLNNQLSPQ", "experiment": "Reversible inhibition of human C-terminal His10-tagged LOXL2 (Met1 to Gln774 residues) expressed in mouse NS0 cells assessed as enzyme residual activity at 10 times IC50 using cadaverine hydrochloride as substrate preincubated for 1 hr followed by 100-fold enzyme-compound mixture dilution in …", "type": "cell-based"}, "[6]": {"experiment": "Toxicity in MMTV-PyMT mouse breast cancer model assessed as death at 70 mg/kg, po administered once daily via gavage for 34 days", "type": "organism-based", "conditions": "in vivo, 816 h"}, "[7]": {"experiment": "Inhibition of pig skin-derived LOX using cadaverine hydrochloride as substrate preincubated for 1 hr followed by substrate addition by ROS-Glo assay", "set-up": "species or system Sus scrofa"}}, "note": "Calls of active or inactive are those of the source. The calls are words filed in the database; no cut-off is given here."}
{"smiles": "CCc1cc(-c2cnn(C)c2)cc(S(=O)(=O)c2cnc(CN)s2)c1", "values": [{"measurement": "remaining at 0.5 h, 10 µM", "setting": "[1]", "result": 82, "unit": "%"}, {"measurement": "Activity", "setting": "[2]", "result": "Non-Toxic"}, {"measurement": "Activity", "setting": "[3]", "result": "Active"}, {"measurement": "remaining at 0.5 h, 10 µM", "setting": "[4]", "result": 76, "unit": "%"}, {"measurement": "Activity", "setting": "[5]", "result": 30, "unit": "%"}, {"measurement": "Activity", "setting": "[6]", "result": "Non-Toxic"}]}
{"smiles": "Cn1cc(-c2cc(S(C)(=O)=O)cc(S(=O)(=O)c3csc(CN)n3)c2)cn1", "values": [{"measurement": "IC50", "setting": "[7]", "result": "> 100", "unit": "µM"}]}
{"smiles": "CS(=O)(=O)c1cc(-c2ccccc2)cc(S(=O)(=O)c2csc(CN)n2)c1", "values": [{"measurement": "IC50", "setting": "[7]", "result": "> 100", "unit": "µM"}]}
{"smiles": "CS(=O)(=O)c1cc(-c2ccccc2)cc(S(=O)(=O)c2ccc(CN)s2)c1", "values": [{"measurement": "remaining at 0.5 h, 10 µM", "setting": "[4]", "result": 64, "unit": "%"}, {"measurement": "Activity", "setting": "[5]", "result": 80, "unit": "%"}]}
{"smiles": "Cn1cc(-c2cc(S(C)(=O)=O)cc(S(=O)(=O)c3cnc(CN)s3)c2)cn1", "values": [{"measurement": "IC50", "setting": "[7]", "result": "2.65 to 3.42", "unit": "µM"}]}
{"smiles": "CS(=O)(=O)c1cc(-c2ccccc2)cc(-c2cnc(CN)s2)c1", "values": [{"measurement": "IC50", "setting": "[7]", "result": "46.5 to 52", "unit": "µM"}]}
{"smiles": "CS(=O)(=O)c1cc(Sc2cnc(CN)s2)cc(-c2ccccc2)c1", "values": [{"measurement": "IC50", "setting": "[7]", "result": "1.13 to 1.31", "unit": "µM"}]}
